In patent US20220023279A1, “COMPOSITIONS FOR TREATMENT OF SYMPHYSIOLYSIS” (priority 2018, published 2022):
Structures can show the parent of a compound that is named as a salt.

Experiments:
[1] = test system: patient suffering from symphysiolysis; test: Example 1: subcutaneous local anesthetic to the inguinal region, pregnant patient with symphysiolysis confined to a wheelchair; assay type: in vivo, human; details: each side of inguinal region
Protocol: A patient weighing about 60 kilograms had previously suffered from a car accident with injury to their left leg, resulting in complex regional pain syndrome. Walking was impaired, and crutches were required for mobility. During pregnancy, they were diagnosed with symphysiolysis and they were confined to a wheelchair as they were unable to ambulate using crutches.
The treatment lasted for one hour. After one hour, additional Bupivacaine HCl was administered, 0.5% of an amount of 5 ml, diluted in 5 ml of saline solution to each side of the inguinal region.
Before and after the administration ultrasound to test fetal pulse was performed to confirm that there was a fetal pulse. The patient was directed to perform fetal monitoring on the day after the administration.

[2] = test system: patient suffering from symphysiolysis; test: Example 3: subcutaneous lidocaine and bupivacaine to the inguinal region, person in 31st week of pregnancy with symphysiolysis; assay type: in vivo, human
Description: A person, weighing about 60 kilograms, in their 20th week complained of groin pains which spread to their right leg. They had difficulty walking and appeared to be dragging their right leg. Upon examination, no sensitivity in symphysis pubis joint was evident. Sensitivity was noticeable at the right sacroiliac joint. Reducing physical activity was recommended by the physician.
(§1) After about six weeks, the patient returned with noticeable sensitivity at the left sacroiliac joint, and some sensitivity at the right sacroiliac joint. Painkillers and orthopedic stabilization of the hip were recommended. NSAIDs were prescribed to be used until the 31st week. The patient had symptoms of symphysiolysis in the 29th week which were relieved using NSAID therapy (diclofenac sodium).
During the 31st week, the patient felt an increase in symphysiolysis. […] The patient complained of temporary paralysis during walking, difficulty sleeping and difficulty sitting because of pain in the groin and back areas. Subcutaneous anesthesia to the inguinal region was recommended. A fetal ultrasound was performed, and fetal movement and pulse were both satisfactory.
The patient was injected, subcutaneously in the inguinal region with 1% lidocaine.
Two days post lidocaine treatment, the patient felt increased pain, and paresthesia in the legs. […] Twenty minutes after the lidocaine administration, the patient received bupivacaine, 0.5%, in an amount of 5 ml to both sides (not diluted with saline), via subcutaneous administration to the inguinal region. […] The patient reported fatigue.

[3] = test system: patient suffering from symphysiolysis; details: 5 ml lidocaine HCl 1%, subcutaneous, both sides
Description: They were recommended to perform orthopedic support, physical therapy and to medicate with oral paracetamol and dipyrone for pain management. Bedrest was recommended.
At 35 weeks they felt an increase in the severity of symphysiolysis. They used orthopedic support methods which were not sufficient to relieve the symptoms. They had considered inducing labor and using a walker to enhance mobility.

[4] = test system: patient suffering from symphysiolysis; test: Example 3: NSAID therapy of symphysiolysis symptoms in the 29th week of pregnancy; assay type: in vivo, human
Description: as §1

`CCCCN1CCCCC1C(=O)Nc1c(C)cccc1C` (centres unmarked) [Bupivacaine HCl] was tested, and the “additional duration of mobility” value ([1]; Bupivacaine HCl 0.5%, 5 ml diluted in 5 ml saline, given one hour after lidocaine HCl) was “nine”.

`CCN(CC)CC(=O)Nc1c(C)cccc1C` [Lidocaine] was tested, and the pain and walking ([2]; 5 minutes after second treatment, 1 ml lidocaine 1% without saline, subcutaneous, both sides) was “improvement in walking, but pain still remained”, the back pains ([2]; 20 hours after first treatment, 1% lidocaine subcutaneous in inguinal region) was “back pains returned, but to a lesser extent than before the treatment” and the sleeping ([2]; night after first treatment, 1% lidocaine subcutaneous in inguinal region) was “greatly improved”. For the same compound, the pain and walking ([2]; six hours after first treatment, 1% lidocaine subcutaneous in inguinal region) was “less of an influence of the anesthetic, but still felt that walking was better than before the treatment”, the pain and walking ([2]; ten minutes after second treatment, 1 ml lidocaine 1% without saline, subcutaneous, both sides) was “able to walk without pain and did not feel back pain” and the pain and walking ([2]; three hours after first treatment, 1% lidocaine subcutaneous in inguinal region) was “improvement in pain and in walking but still felt minor freezing of gait”.

With `CCN(CC)CC(=O)Nc1c(C)cccc1C` [lidocaine HCl] the “patient condition after administration (standing, pain, need of wheelchair)” value ([1]; lidocaine HCl 1%, 5 ml diluted with 5 ml saline, subcutaneous) was “able to stand without pain and no longer required a wheelchair”, the “side effects reported by the patient after the treatment” value [3] was “slight dizziness and occasionally heat rate increases” and the “ability to climb stairs” value ([3]; after 30 minutes) was “able climb stairs without significant pain”. The “pain in hip joint which had limited walking” value ([3]; after 30 minutes) was “significantly reduced”, the “relief of symphysiolysis symptoms” value ([3]; after 30 minutes) was “significant relief” and the “sharp pain in the left groin area” value ([3]; after 30 minutes) was “disappeared”.

In the case of `CCCCN1CCCCC1C(=O)Nc1c(C)cccc1C` (centres unmarked) [Bupivacaine], the pain level ([2]; five hours after lidocaine, bupivacaine 0.5%, 5 ml both sides, given twenty minutes after lidocaine) was “further improvement in pain level”, the “pain, walking and walking speed” value ([2]; three hours after lidocaine, bupivacaine 0.5%, 5 ml both sides undiluted, subcutaneous, given twenty minutes after lidocaine) was “significant improvement in walking, decrease in pain, and increase in walking speed” and the “side effect reported by the patient” value ([2]; three hours after lidocaine, bupivacaine 0.5%, 5 ml both sides, given twenty minutes after lidocaine) was “fatigue”.

`O=C(O)Cc1ccccc1Nc1c(Cl)cccc1Cl` [diclofenac sodium] was tested, and the “symptoms of symphysiolysis under NSAID therapy” value [4] was “relieved”.
